# Results from PubChem BioAssay (NCI).
#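 Test compounds were applied to cells in 96-well plates for 48 hours at 5 doses. GI50: concentration for 50% inhibition of growth. TGI: concentration producing complete growth inhibition.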
# Tests used:
# Test in all cases: NCI-60 cell line screen, 48 h
# SK-MEL-28 melanoma = tested on: SK-MEL-28 melanoma
# KM12 colon = tested on: KM12 colon
# SK-MEL-2 melanoma = tested on: SK-MEL-2 melanoma
# A549 NSCLC = tested on: A549 NSCLC
# PC-3 prostate = tested on: PC-3 prostate
# OVCAR-8 ovarian = tested on: OVCAR-8 ovarian
# SF-268 CNS = tested on: SF-268 CNS
# MDA-MB-435 = tested on: MDA-MB-435
# U251 CNS = tested on: U251 CNS
# CAKI-1 renal = tested on: CAKI-1 renal
# MDA-MB-231 breast = tested on: MDA-MB-231 breast
# NCI-H522 lung = tested on: NCI-H522 lung
# MALME-3M melanoma = tested on: MALME-3M melanoma
# IGROV1 ovarian = tested on: IGROV1 ovarian
# 786-0 renal = tested on: 786-0 renal
# EKVX NSCLC = tested on: EKVX NSCLC
# HCT-15 colon = tested on: HCT-15 colon
# M14 melanoma = tested on: M14 melanoma
# ACHN renal = tested on: ACHN renal
# OVCAR-3 ovarian = tested on: OVCAR-3 ovarian
# SK-MEL-5 melanoma = tested on: SK-MEL-5 melanoma
# TK-10 renal = tested on: TK-10 renal
# OVCAR-5 ovarian = tested on: OVCAR-5 ovarian
# HCT-116 colon = tested on: HCT-116 colon
# SNB-75 CNS = tested on: SNB-75 CNS
# SN12C renal = tested on: SN12C renal
# DU-145 prostate = tested on: DU-145 prostate
# T-47D breast = tested on: T-47D breast
# HCC-2998 colon = tested on: HCC-2998 colon
# HT29 colon = tested on: HT29 colon
# A498 renal = tested on: A498 renal
# NCI/ADR-RES ovarian = tested on: NCI/ADR-RES ovarian
# NCI-H460 lung = tested on: NCI-H460 lung
# BT-549 breast = tested on: BT-549 breast
# SF-295 CNS = tested on: SF-295 CNS
# COLO 205 colon = tested on: COLO 205 colon
# SF-539 CNS = tested on: SF-539 CNS
# NCI-H226 lung = tested on: NCI-H226 lung
# UO-31 renal = tested on: UO-31 renal
# HOP-92 NSCLC = tested on: HOP-92 NSCLC
# HOP-62 NSCLC = tested on: HOP-62 NSCLC
# RXF 393 renal = tested on: RXF 393 renal
# OVCAR-4 ovarian = tested on: OVCAR-4 ovarian
# NCI-H23 lung = tested on: NCI-H23 lung
# SW-620 colon = tested on: SW-620 colon
# SNB-19 CNS = tested on: SNB-19 CNS
# RPMI-8226 leukemia = tested on: RPMI-8226 leukemia
# LOX IMVI melanoma = tested on: LOX IMVI melanoma
# UACC-62 melanoma = tested on: UACC-62 melanoma
# UACC-257 melanoma = tested on: UACC-257 melanoma
# HS 578T breast = tested on: HS 578T breast
# SR leukemia = tested on: SR leukemia
# MCF7 breast = tested on: MCF7 breast
smiles,measurement,setting,value
O=C(Nc1nc2ccc(S(=O)(=O)Nc3ccc(C4(C(F)(F)F)CC4)cc3)cc2[nH]1)c1cnccn1,GI50,SK-MEL-28 melanoma,4.58 µM
same,TGI,SK-MEL-28 melanoma,19.2 µM
same,GI50,KM12 colon,1.03 µM
same,TGI,KM12 colon,14.4 µM
same,GI50,SK-MEL-2 melanoma,3.03 µM
same,TGI,SK-MEL-2 melanoma,18.5 µM
same,GI50,A549 NSCLC,2.88 µM
same,TGI,A549 NSCLC,21.5 µM
same,GI50,PC-3 prostate,1.06 µM
same,TGI,PC-3 prostate,2.47 µM
same,GI50,OVCAR-8 ovarian,5.51 µM
same,TGI,OVCAR-8 ovarian,31.8 µM
same,GI50,SF-268 CNS,4.21 µM
same,TGI,SF-268 CNS,20.6 µM
same,GI50,MDA-MB-435,0.33 µM
same,TGI,MDA-MB-435,1.4 µM
same,GI50,U251 CNS,4.74 µM
same,TGI,U251 CNS,22.5 µM
same,GI50,CAKI-1 renal,4.19 µM
same,TGI,CAKI-1 renal,16.2 µM
same,GI50,MDA-MB-231 breast,5.32 µM
same,TGI,MDA-MB-231 breast,19.4 µM
same,GI50,NCI-H522 lung,1.07 µM
same,TGI,NCI-H522 lung,14.4 µM
same,GI50,MALME-3M melanoma,1.66 µM
same,TGI,MALME-3M melanoma,15.5 µM
same,GI50,IGROV1 ovarian,1.9 µM
same,TGI,IGROV1 ovarian,18.5 µM
same,GI50,786-0 renal,2.77 µM
same,TGI,786-0 renal,12.6 µM
same,GI50,EKVX NSCLC,3.04 µM
same,TGI,EKVX NSCLC,15 µM
same,GI50,HCT-15 colon,0.557 µM
same,TGI,HCT-15 colon,14.3 µM
same,GI50,M14 melanoma,1.12 µM
same,TGI,M14 melanoma,11.1 µM
same,GI50,ACHN renal,4.39 µM
same,TGI,ACHN renal,18.2 µM
same,GI50,OVCAR-3 ovarian,0.417 µM
same,TGI,OVCAR-3 ovarian,10.1 µM
same,GI50,SK-MEL-5 melanoma,0.693 µM
same,TGI,SK-MEL-5 melanoma,4.3 µM
same,GI50,TK-10 renal,8.16 µM
same,TGI,TK-10 renal,22.5 µM
same,GI50,OVCAR-5 ovarian,5.52 µM
same,TGI,OVCAR-5 ovarian,19.5 µM
same,GI50,HCT-116 colon,1.66 µM
same,TGI,HCT-116 colon,15.9 µM
same,GI50,SNB-75 CNS,1.53 µM
same,TGI,SNB-75 CNS,6.45 µM
same,GI50,SN12C renal,4.46 µM
same,TGI,SN12C renal,17.6 µM
same,GI50,DU-145 prostate,2.88 µM
same,TGI,DU-145 prostate,13.2 µM
same,GI50,T-47D breast,3.8 µM
same,TGI,T-47D breast,23.9 µM
same,GI50,HCC-2998 colon,3.61 µM
same,TGI,HCC-2998 colon,17.7 µM
same,GI50,HT29 colon,1.2 µM
same,TGI,HT29 colon,14.4 µM
same,GI50,A498 renal,2.26 µM
same,TGI,A498 renal,8.17 µM
same,GI50,NCI/ADR-RES ovarian,1.73 µM
same,TGI,NCI/ADR-RES ovarian,11.8 µM
same,GI50,NCI-H460 lung,1.07 µM
same,TGI,NCI-H460 lung,12.2 µM
same,GI50,BT-549 breast,1.91 µM
same,TGI,BT-549 breast,16.1 µM
same,GI50,SF-295 CNS,0.506 µM
same,TGI,SF-295 CNS,10.3 µM
same,GI50,COLO 205 colon,2.84 µM
same,TGI,COLO 205 colon,17.5 µM
same,GI50,SF-539 CNS,2.35 µM
same,TGI,SF-539 CNS,10.4 µM
same,GI50,NCI-H226 lung,2.08 µM
same,TGI,NCI-H226 lung,9.51 µM
same,GI50,UO-31 renal,3.02 µM
same,TGI,UO-31 renal,13.9 µM
same,GI50,HOP-92 NSCLC,1.04 µM
same,TGI,HOP-92 NSCLC,2.4 µM
same,GI50,HOP-62 NSCLC,3.85 µM
same,TGI,HOP-62 NSCLC,23 µM
same,GI50,RXF 393 renal,1.12 µM
same,TGI,RXF 393 renal,4.28 µM
same,GI50,OVCAR-4 ovarian,4.61 µM
same,TGI,OVCAR-4 ovarian,19.7 µM
same,GI50,NCI-H23 lung,2.2 µM
same,TGI,NCI-H23 lung,15.8 µM
same,GI50,SW-620 colon,1.71 µM
same,TGI,SW-620 colon,15.3 µM
same,GI50,SNB-19 CNS,4.24 µM
same,TGI,SNB-19 CNS,22 µM
same,GI50,RPMI-8226 leukemia,1.16 µM
same,TGI,RPMI-8226 leukemia,5.39 µM
same,GI50,LOX IMVI melanoma,1.62 µM
same,TGI,LOX IMVI melanoma,20.1 µM
same,GI50,UACC-62 melanoma,1.51 µM
same,TGI,UACC-62 melanoma,15.4 µM
same,GI50,UACC-257 melanoma,10.6 µM
same,TGI,UACC-257 melanoma,23.8 µM
same,GI50,HS 578T breast,2.57 µM
same,TGI,HS 578T breast,13.5 µM
same,GI50,SR leukemia,0.359 µM
same,TGI,SR leukemia,2.96 µM
same,GI50,MCF7 breast,0.551 µM
same,TGI,MCF7 breast,13.4 µM
